# Assay results: ChEMBL document CHEMBL3994564 (Medchemcomm, 2016)
# Legend:
# [1] = tested on: Escherichia coli; test: Antibacterial activity against Escherichia coli ATCC 25922 after 24 hrs by MTT assay; assay type: functional; details: ATCC 25922, 24 h
# [2] = tested on: Pseudomonas aeruginosa; test: Antibacterial activity against Pseudomonas aeruginosa ATCC 27853 after 24 hrs by MTT assay; assay type: functional; details: ATCC 27853, 24 h
# [3] = tested on: Staphylococcus aureus; test: Antibacterial activity against Staphylococcus aureus ATCC 6538 after 24 hrs by MTT assay; assay type: functional; details: ATCC 6538, 24 h
# [4] = tested on: Bacillus subtilis; test: Antibacterial activity against Bacillus subtilis ATCC 530 after 24 hrs by MTT assay; assay type: functional; details: ATCC 530, 24 h
# [5] = target: T1, Beta-ketoacyl-[acyl-carrier-protein] synthase III (Escherichia coli K-12, UniProt P0A6R0); test: Inhibition of Escherichia coli FabH expressed in Escherichia coli DH10B using holo-ACP/acetyl-CoA as substrate assessed as incorporation of [3H] signal in final product preincubated with holo-ACP for 1 hr followed by acetyl-CoA addition measured after 25 mins by liquid scintillation counting method
# T1 sequence (P0A6R0 whole entry): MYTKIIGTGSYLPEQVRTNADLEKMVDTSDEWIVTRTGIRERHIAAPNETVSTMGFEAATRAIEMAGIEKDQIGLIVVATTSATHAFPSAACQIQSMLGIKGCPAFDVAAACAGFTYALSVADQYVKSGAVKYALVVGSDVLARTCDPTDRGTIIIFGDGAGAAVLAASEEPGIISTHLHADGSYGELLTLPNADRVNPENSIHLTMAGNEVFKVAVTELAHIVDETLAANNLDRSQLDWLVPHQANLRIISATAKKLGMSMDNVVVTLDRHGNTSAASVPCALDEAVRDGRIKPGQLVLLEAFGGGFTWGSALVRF
# [6] = tested on: NIH3T3; test: Cytotoxic activity against mouse NIH/3T3 cells after 24 hrs by MTT assay; assay type: cell-based; details: NIH3T3, 24 h
Compound,MIC [1],MIC [2],MIC [3],MIC [4],IC50 [5],IC50 [6]
O=C(N/N=C/c1ccc(C(F)(F)F)cc1)c1ccc2c(c1)OCCCO2,25 µg/mL,12.5 µg/mL,12.5 µg/mL,25 µg/mL,12.4 µM,104 µM
O=C(N/N=C/c1ccc(O)c([N+](=O)[O-])c1)c1ccc2c(c1)OCCCO2,6.25 µg/mL,12.5 µg/mL,25 µg/mL,12.5 µg/mL,8.9 µM,198 µM
O=C(N/N=C/c1cc([N+](=O)[O-])ccc1Cl)c1ccc2c(c1)OCCCO2,3.13 µg/mL,3.13 µg/mL,3.13 µg/mL,6.25 µg/mL,3.9 µM,172 µM
COc1ccc(/C=N/NC(=O)c2ccc3c(c2)OCCCO3)cc1,25 µg/mL,12.5 µg/mL,25 µg/mL,50 µg/mL,24.1 µM,132 µM
O=C(N/N=C/c1cc([N+](=O)[O-])ccc1O)c1ccc2c(c1)OCCCO2,6.25 µg/mL,3.13 µg/mL,6.25 µg/mL,3.13 µg/mL,3.5 µM,157 µM
O=C(N/N=C/c1ccccc1Cl)c1ccc2c(c1)OCCCO2,25 µg/mL,50 µg/mL,50 µg/mL,> 100 µg/mL,,
O=C(N/N=C/c1ccc(I)cc1)c1ccc2c(c1)OCCCO2,25 µg/mL,25 µg/mL,6.25 µg/mL,12.5 µg/mL,6.9 µM,201 µM
O=C(N/N=C/c1ccc(F)c([N+](=O)[O-])c1)c1ccc2c(c1)OCCCO2,12.5 µg/mL,6.25 µg/mL,6.25 µg/mL,6.25 µg/mL,5.1 µM,131 µM
O=Cc1ccccc1/C=N/NC(=O)c1ccc2c(c1)OCCCO2,25 µg/mL,25 µg/mL,25 µg/mL,50 µg/mL,,
CN(C)c1ccc(/C=N/NC(=O)c2ccc3c(c2)OCCCO3)c(O)c1,12.5 µg/mL,12.5 µg/mL,25 µg/mL,50 µg/mL,6.7 µM,203 µM
COc1cc(/C=N/NC(=O)c2ccc3c(c2)OCCCO3)cc(OC)c1O,3.13 µg/mL,6.25 µg/mL,6.25 µg/mL,3.13 µg/mL,3.9 µM,147 µM
O=C(N/N=C/c1cccs1)c1ccc2c(c1)OCCCO2,> 100 µg/mL,> 100 µg/mL,> 100 µg/mL,> 100 µg/mL,,
O=C(N/N=C/c1ccc(Cl)cc1Cl)c1ccc2c(c1)OCCCO2,6.25 µg/mL,6.25 µg/mL,6.25 µg/mL,12.5 µg/mL,4.3 µM,198 µM
O=C(N/N=C/c1cccc2ccccc12)c1ccc2c(c1)OCCCO2,3.13 µg/mL,6.25 µg/mL,6.25 µg/mL,6.25 µg/mL,5.2 µM,130 µM
Cc1ccccc1/C=N/NC(=O)c1ccc2c(c1)OCCCO2,> 100 µg/mL,50 µg/mL,> 100 µg/mL,> 100 µg/mL,,
O=C(N/N=C/c1ccc(O)cc1)c1ccc2c(c1)OCCCO2,50 µg/mL,25 µg/mL,12.5 µg/mL,25 µg/mL,38.7 µM,178 µM
Cc1cccc(/C=N/NC(=O)c2ccc3c(c2)OCCCO3)c1,50 µg/mL,25 µg/mL,> 100 µg/mL,50 µg/mL,,
O=C(N/N=C/C=C/c1ccccc1)c1ccc2c(c1)OCCCO2,50 µg/mL,25 µg/mL,> 100 µg/mL,50 µg/mL,,
O=C(N/N=C/c1ccc(O)c(O)c1)c1ccc2c(c1)OCCCO2,12.5 µg/mL,12.5 µg/mL,25 µg/mL,25 µg/mL,7.8 µM,102 µM

Compound,MIC [1],MIC [2],MIC [3],MIC [4],IC50 [5],IC50 [6]
O=C(N/N=C/c1cc([N+](=O)[O-])ccc1F)c1ccc2c(c1)OCCCO2,6.25 µg/mL,12.5 µg/mL,12.5 µg/mL,12.5 µg/mL,9.5 µM,168 µM
COc1ccc(/C=N/NC(=O)c2ccc3c(c2)OCCCO3)cc1OC,3.13 µg/mL,3.13 µg/mL,6.25 µg/mL,3.13 µg/mL,4.1 µM,126 µM
O=C(N/N=C/c1ccccc1)c1ccc2c(c1)OCCCO2,50 µg/mL,50 µg/mL,> 100 µg/mL,> 100 µg/mL,,
O=C(N/N=C/c1ccc([N+](=O)[O-])cc1)c1ccc2c(c1)OCCCO2,25 µg/mL,25 µg/mL,50 µg/mL,25 µg/mL,17.6 µM,185 µM
O=C(N/N=C/c1cc(Cl)ccc1O)c1ccc2c(c1)OCCCO2,12.5 µg/mL,25 µg/mL,50 µg/mL,25 µg/mL,13.2 µM,111 µM
O=C(N/N=C/c1cc(Cl)cc(Cl)c1O)c1ccc2c(c1)OCCCO2,12.5 µg/mL,6.25 µg/mL,12.5 µg/mL,6.25 µg/mL,5.4 µM,184 µM
O=C(N/N=C/c1ccccc1Br)c1ccc2c(c1)OCCCO2,50 µg/mL,25 µg/mL,50 µg/mL,25 µg/mL,,
O=C(N/N=C/c1ccc(F)cc1)c1ccc2c(c1)OCCCO2,12.5 µg/mL,25 µg/mL,25 µg/mL,50 µg/mL,32.5 µM,126 µM
Cc1ccc(/C=N/NC(=O)c2ccc3c(c2)OCCCO3)cc1,50 µg/mL,50 µg/mL,> 100 µg/mL,50 µg/mL,,
O=C(N/N=C/c1ccc(Cl)c([N+](=O)[O-])c1)c1ccc2c(c1)OCCCO2,3.13 µg/mL,6.25 µg/mL,6.25 µg/mL,3.13 µg/mL,4.4 µM,147 µM
C(=N\C1CCCCC1)/c1ccc2c(c1)OCCCO2,,,,,1.6 µM,
CN(C)c1ccc(/C=N/NC(=O)c2ccc3c(c2)OCCCO3)cc1,6.25 µg/mL,12.5 µg/mL,6.25 µg/mL,6.25 µg/mL,7.2 µM,135 µM
COc1cc(/C=N/NC(=O)c2ccc3c(c2)OCCCO3)cc(OC)c1OC,1.56 µg/mL,3.13 µg/mL,3.13 µg/mL,1.56 µg/mL,2 µM,120 µM
Cc1ccc(/C=N/NC(=O)c2ccc3c(c2)OCCCO3)o1,> 100 µg/mL,> 100 µg/mL,> 100 µg/mL,> 100 µg/mL,,
O=C(N/N=C/c1c(F)cccc1Cl)c1ccc2c(c1)OCCCO2,12.5 µg/mL,25 µg/mL,25 µg/mL,50 µg/mL,20.6 µM,164 µM
O=C(N/N=C/c1ccc2ccccc2c1)c1ccc2c(c1)OCCCO2,6.25 µg/mL,3.13 µg/mL,6.25 µg/mL,3.13 µg/mL,4.6 µM,114 µM
O=C(N/N=C/c1ccccc1O)c1ccc2c(c1)OCCCO2,50 µg/mL,50 µg/mL,25 µg/mL,12.5 µg/mL,,
O=C(N/N=C/c1ccc(-c2ccccc2)cc1)c1ccc2c(c1)OCCCO2,3.13 µg/mL,6.25 µg/mL,12.5 µg/mL,6.25 µg/mL,4.7 µM,146 µM
NC[C@H]1O[C@H](O[C@H]2[C@H](O)[C@@H](O[C@H]3O[C@H](CO)[C@@H](O)[C@H](N)[C@H]3O)[C@H](N)C[C@@H]2N)[C@H](N)[C@@H](O)[C@@H]1O [BEKANAMYCIN],3.13 µg/mL,3.13 µg/mL,1.56 µg/mL,1.56 µg/mL,5.6 µM,
